For experiment [1], the system named is effets β1 (augmentation de la force contractile du myocarde) de l'isoprénaline. The experiment is described as follows: β-blocking activity: inhibition of the β1 effects of intravenous isoprenaline in anaesthetised dogs. To be noted: Canis lupus familiaris, iv, dog, inhibition given with negative sign, read-out: % d'inhibition des effets β1^(+) de l'Isoprénaline; for inhibition at 0.001 mg/kg: 0,001 mg/kg I.V.; for inhibition at 0.003 mg/kg: 0,003 mg/kg I.V.; for inhibition at 0.01 mg/kg: 0,010 mg/kg I.V.; for inhibition at 0.1 mg/kg: 0,100 mg/kg I.V. It counts as in vivo, chiens. On the procedure: (§1) Des chiens tout-venants mâles ou femelles sont anesthésiés au mébubarbital sodique (30 mg/kg I.V.) et ventilés artificiellement par une pompe Pesty RPP. Ils sont supplémentés en oxygène.
(§2) On mesure: • - la pression carotidienne systolique et diastolique • - la force contractile du myocarde.
(§3) Les signaux sont amplifiés et enregistrés sur Dynograph Beckman.
(§4) L'activité β bloquante adrénergique a été étudiée vis-à-vis des effets β1 (augmentation de la force contractile du myocarde) et des effets P2 (diminution de la pression artérielle disstolique) de l'isoprénaline administrée par voie intraveineuse.
(§5) On calcule le pourcentsge d'inhibition des effets β1 et des effets β2 de l'isoprénaline en fonction des doses (mg.kg I.V.) des différents exemples.
(§6) Les exemples sont injectés dans le veine saphène aux doses (exprimées en base) de: 0,0003 0,001 0,003 0,01 0,1 1,0 et 4,0 ou 8,0 mg.kg-1.

Experiment [2] has as its system effets β2 (diminution de la pression artérielle diastolique) de l'isoprénaline. The experiment is described as follows: β-blocking activity: inhibition of the β2 effects of intravenous isoprenaline in anaesthetised dogs. It counts as in vivo, chiens. The conditions noted are these: Canis lupus familiaris, iv, dog, inhibition given with negative sign, read-out: % d'inhibition des effets β2^⊕ de l'Isoprénaline; for inhibition at 0.001 mg/kg: 0,001 mg/kg I.V.; for inhibition at 0.003 mg/kg: 0,003 mg/kg I.V.; for inhibition at 0.01 mg/kg: 0,010 mg/kg I.V.; for inhibition at 0.1 mg/kg: 0,100 mg/kg I.V. As for the experimental part:
as §1, §2, §3, §4, §5, §6

For experiment [3], the system named is rat génétiquement hypertendu: Rat OKAMOTO. The experiment is described as follows: Antihypertensive activity in spontaneously hypertensive rats (tail-cuff systolic pressure and heart rate after oral dosing). It counts as in vivo. On the procedure:
Des rats mâles âgés de 13 à 21 semaines présentant une hypertension spontanée génétiquement transmissible (souche OKAMOTO provenance IFFA CREDO) sont placés dans une enceinte thermostatée à 38°C. Les rats sont laissés en situation libre. La pression artérielle est mesurée par un sphygmomanomètre Narco Biosystem. Un manchon est placé à la base de la queue et un détecteur enregistre le pouls en aval du manchon. Celui-ci est gonflé jusqu'à suppression du pouls il est ensuite progressivement dégonflé. La pression mesurée à la reprise des battements cardiaques est la pression artérielle systolique. On calcule la fréquence cardiaque à partir de l'enregistrement du pouls artériel. Les produits à étudiar sont mis en suspension el administrés par voie orale sous un volume de 1 ml pour 100 g de poids corporel. Les mesures sont répétées à intervalles réguliers.
Les valeurs moyennes avant traitement pour les différents lots de rats sont pour la pression artérielle systolique de 190 à 200 mmHg et pour la fréquence cardiaque de 305 à 350 battements par minute.
Le tableau III ci-après donne la moyenne des variations de la pression systolique (mmHg) de la fréquence cardisque (battements/minute) et les écarts type à la moyenne obtenus 1 heure 3 heures et 5 heures après administration orale.

For the molecule `CC(C)NCC(O)COc1ccc(NC(=O)Cc2ccsc2)cc1Br` (stereo not drawn) [exemple 42, 1-[2-bromo 4-(3-thiénylacétamido)phénoxy] 3-isopropylamino 2-propanol], in experiment [1], the inhibition at 0.001 mg/kg is -29%, the inhibition at 0.003 mg/kg was -51%, the inhibition at 0.01 mg/kg is -70% and the inhibition at 0.1 mg/kg was -100%. For the same molecule, in experiment [2], the inhibition at 0.001 mg/kg came to 0%, the inhibition at 0.003 mg/kg came out at 0%, the inhibition at 0.01 mg/kg amounted to 0% and the inhibition at 0.1 mg/kg was found to be 0%. Moreover, in experiment [3] (64 mg.kg^-1 V.O), the “Fréquence cardiaque Δ (battements/min) T+1 heure m (sm)” value is given as “+50 (19) battements/min”, the “Pression systolique Δ (mmHg) T+1 heure m (sm)” value is given as -43 (8) mmHg, the “Fréquence cardiaque Δ (battements/min) T+3 heures m (sm)” value is on record as “+17 (12) battements/min” and the “Pression systolique Δ (mmHg) T+3 heures m (sm)” value is on record as -55 (7) mmHg. For the same molecule, in experiment [3] (64 mg.kg^-1 V.O), the “Fréquence cardiaque Δ (battements/min) T+5 heures m (sm)” value was “+33 (12) battements/min” and the “Pression systolique Δ (mmHg) T+5 heures m (sm)” value is recorded as -51 (10) mmHg.

With `CC(C)(C)NCC(O)COc1ccc(NC(=O)Cc2cccs2)cc1Cl` (stereo not drawn) [exemple 43, 1-[2-chloro 4-(2-thiénylacétamido)phénoxy] 3-terbutylamino 2-propanol], in experiment [1], the inhibition at 0.001 mg/kg was -18%, the inhibition at 0.003 mg/kg is -49%, the inhibition at 0.01 mg/kg is -82% and the inhibition at 0.1 mg/kg was -100%. In experiment [2], the inhibition at 0.001 mg/kg is 0%, the inhibition at 0.003 mg/kg came to 0%, the inhibition at 0.01 mg/kg turned out to be 0% and the inhibition at 0.1 mg/kg was -22%. In experiment [3] (64 mg.kg^-1 V.O), the “Fréquence cardiaque Δ (battements/min) T+1 heure m (sm)” value is “+13 (20) battements/min”, the “Pression systolique Δ (mmHg) T+1 heure m (sm)” value is -29 (9) mmHg, the “Fréquence cardiaque Δ (battements/min) T+3 heures m (sm)” value is “+23 (7) battements/min” and the “Pression systolique Δ (mmHg) T+3 heures m (sm)” value was -44 (6) mmHg. For the same molecule, in experiment [3] (64 mg.kg^-1 V.O), the “Fréquence cardiaque Δ (battements/min) T+5 heures m (sm)” value is “+30 (12) battements/min” and the “Pression systolique Δ (mmHg) T+5 heures m (sm)” value is reported as -44 (4) mmHg.

Consider `CC(C)NCC(O)COc1ccc(NC(=O)Cc2cccs2)cc1Cl` (stereo not drawn) [exemple 44, 1-[2-chloro 4-(2-thiénylacétamido)phénoxy] 3-isopropylamino 2-propanol], for which, in experiment [1], the inhibition at 0.001 mg/kg is -27%, the inhibition at 0.003 mg/kg was -46%, the inhibition at 0.01 mg/kg is -67% and the inhibition at 0.1 mg/kg was -82%. In experiment [2], the inhibition at 0.001 mg/kg is -11%, the inhibition at 0.003 mg/kg is -22%, the inhibition at 0.01 mg/kg was -18% and the inhibition at 0.1 mg/kg is -15%. Moreover, in experiment [3] (128 mg.kg^-1 V.O), the “Fréquence cardiaque Δ (battements/min) T+1 heure m (sm)” value is on record as “+68 (5) battements/min”, the “Pression systolique Δ (mmHg) T+1 heure m (sm)” value is reported as -37 (11) mmHg, the “Fréquence cardiaque Δ (battements/min) T+3 heures m (sm)” value is recorded as “+45 (12) battements/min” and the “Pression systolique Δ (mmHg) T+3 heures m (sm)” value is recorded as -48 (11) mmHg. In addition, in experiment [3] (128 mg.kg^-1 V.O), the “Fréquence cardiaque Δ (battements/min) T+5 heures m (sm)” value is listed as “+52 (11) battements/min” and the “Pression systolique Δ (mmHg) T+5 heures m (sm)” value is reported as -53 (11) mmHg.

With `CC(C)(C)NCC(O)COc1ccc(NC(=O)Cc2ccsc2)cc1Cl` (stereo not drawn) [exemple 45, 1-[2-chloro 4-(3-thiénylacétamido)phénoxy] 3-terbutylamino 2-propanol], in experiment [1], the inhibition at 0.001 mg/kg is -30%, the inhibition at 0.003 mg/kg is -60%, the inhibition at 0.01 mg/kg is -86% and the inhibition at 0.1 mg/kg was -100%. In experiment [2], the inhibition at 0.001 mg/kg is -12%, the inhibition at 0.003 mg/kg was -5%, the inhibition at 0.01 mg/kg is -23% and the inhibition at 0.1 mg/kg is -33%. In addition, in experiment [3] (64 mg.kg^-1 V.O), the “Fréquence cardiaque Δ (battements/min) T+1 heure m (sm)” value was “+45 (6) battements/min”, the “Pression systolique Δ (mmHg) T+1 heure m (sm)” value is -32 (5) mmHg, the “Pression systolique Δ (mmHg) T+3 heures m (sm)” value is listed as -14 (9) mmHg and the “Fréquence cardiaque Δ (battements/min) T+5 heures m (sm)” value is given as “+30 (10) battements/min”. Besides, the “Pression systolique Δ (mmHg) T+5 heures m (sm)” value in experiment [3] (64 mg.kg^-1 V.O) was -28 (5) mmHg.

Take `CC(C)NCC(O)COc1ccc(NC(=O)Cc2cccs2)cc1F` (stereo not drawn) [exemple 48, 1-[2-fluoro 4-(2-thiénylacétamido)phénoxy] 3-isopropylamino 2-propanol]: in experiment [1], the inhibition at 0.001 mg/kg was -11%, the inhibition at 0.003 mg/kg was -23%, the inhibition at 0.01 mg/kg is -41% and the inhibition at 0.1 mg/kg is -83%. Moreover, in experiment [2], the inhibition at 0.001 mg/kg is -27%, the inhibition at 0.003 mg/kg was -31%, the inhibition at 0.01 mg/kg is -46% and the inhibition at 0.1 mg/kg is -52%. Besides, in experiment [3] (64 mg.kg^-1 V.O), the “Fréquence cardiaque Δ (battements/min) T+1 heure m (sm)” value is “+38 (10) battements/min”, the “Pression systolique Δ (mmHg) T+1 heure m (sm)” value is -51 (6) mmHg, the “Fréquence cardiaque Δ (battements/min) T+3 heures m (sm)” value was “+41 (8) battements/min” and the “Pression systolique Δ (mmHg) T+3 heures m (sm)” value is on record as -50 (6) mmHg. For the same molecule, in experiment [3] (64 mg.kg^-1 V.O), the “Fréquence cardiaque Δ (battements/min) T+5 heures m (sm)” value is listed as “+27 (10) battements/min” and the “Pression systolique Δ (mmHg) T+5 heures m (sm)” value is -45 (6) mmHg.

In general, inhibition refers to the change of the read-out against control, counted positive when it falls.

(Values after patent EP0071535B1, “(4-(2 and/or 3-Thienylacetamido)-phenoxy)-hydroxyaminopropanes, their preparation, their therapeutic use and intermediates” (CARPIBEM (CENTRE D'ACTIVITE ET DE RECHERCHE PHARMACEUTIQUE …, priority 1981, dated 1983).)
